Values after ≈ are worked out from the molar mass of the structure shown. Active and inactive are the calls of the source. The rule behind the calls is not given here.
Legend:
Pichia kudriavzevii = assay: Antimicrobial activity against Pichia kudriavzevii 6558 assessed as microbial growth inhibition by broth microdilution method; assay type: functional
Candida tropicalis = assay: Antimicrobial activity against Candida tropicalis 750 assessed as microbial growth inhibition by broth microdilution method; assay type: functional
Nakaseomyces glabratus = assay: Antimicrobial activity against Candida glabrata 2001 assessed as microbial growth inhibition by broth microdilution method; assay type: functional
Chlamydia trachomatis [1] = assay: Antibacterial activity against Chlamydia trachomatis serovar L2 infected in HEp-2 cells assessed as bacterial growth inhibition incubated for 16 hrs by IFA assay; assay type: functional, organism-based; details: serovar L2, HEp-2, 16 h
Chlamydia trachomatis [2] = assay: Antibacterial activity against Chlamydia trachomatis serovar L2 infected in HEp-2 cells assessed as bacterial growth inhibition at 25 to 0.39 ug/ml incubated for 16 hrs by IFA assay; assay type: functional, organism-based; details: dose 25-0.39 µg/ml
Chlamydia trachomatis [3] = assay: Inhibition of recombinant Chlamydia trachomatis ClpX ATPase activity assessed as reduction in ATP consumption at 25 ug/ml incubated for 60 mins by Kinase Glo assay relative to control; details: dose 25.0 µg/ml
[4] = Cytotoxicity against HEp-2 cells assessed as cell viability at 256 ug/ml incubated for 20 hrs by XTT assay relative to control; assay type: toxicity, cell-based; details: human, at 256 µg/mL, read-out: Activity
[5] = system: Lacticaseibacillus rhamnosus; assay: Antimicrobial activity against Lactobacillus rhamnosus CGMCC 1.3724 assessed as microbial growth inhibition incubated for 24 hrs by TTC staining based assay; assay type: functional
Escherichia coli [6] = assay: Antimicrobial activity against non-pathogenic Escherichia coli ATCC MG1655 assessed as microbial growth inhibition incubated for 24 hrs by TTC staining based assay; assay type: functional
Pseudomonas aeruginosa = assay: Antimicrobial activity against Pseudomonas aeruginosa PA01 assessed as microbial growth inhibition incubated for 24 hrs by TTC staining based assay; assay type: functional
[7] = system: Lactiplantibacillus plantarum; assay: Antimicrobial activity against Lactobacillus plantarum DSM 20174 assessed as microbial growth inhibition incubated for 24 hrs; assay type: functional
[8] = system: Bacteroides thetaiotaomicron; assay: Antimicrobial activity against Bacteroides thetaiotaomicron DSM 2079 assessed as microbial growth inhibition incubated for 48 hrs; assay type: functional
Anaerostipes caccae = assay: Antimicrobial activity against Anaerostipes caccae […] assessed as microbial growth inhibition incubated for 48 hrs; assay type: functional
Chlamydia trachomatis [9] = assay: Antibacterial activity against Chlamydia trachomatis L2 infected in HEp-2 cells assessed as inhibition of infectious progeny incubated for 24 hrs by fluorescence microscopy; assay type: functional, organism-based; details: L2, HEp-2, 24 h
Acinetobacter baumannii = assay: Antimicrobial activity against Acinetobacter baumannii 2208 assessed as microbial growth inhibition incubated for 24 hrs by TTC staining based assay; assay type: functional
Escherichia coli [10] = assay: Antimicrobial activity against Escherichia coli K12 assessed as microbial growth inhibition incubated for 24 hrs by TTC staining based assay; assay type: functional
Blautia producta = assay: Antimicrobial activity against Blautia producta DSM 2950 assessed as microbial growth inhibition incubated for 48 hrs; assay type: functional
Thomasclavelia ramosa = assay: Antimicrobial activity against Clostridium ramosum DSM 1402 assessed as microbial growth inhibition incubated for 48 hrs; assay type: functional
Staphylococcus aureus = assay: Antimicrobial activity against Staphylococcus aureus USA 300 JE2 assessed as microbial growth inhibition incubated for 24 hrs by TTC staining based assay; assay type: functional

Row | SMILES | IC50 (Chlamydia trachomatis [1]; read-out: IC50) | IC50 (Chlamydia trachomatis [1]; read-out: pIC50 (converted)) [µM] | other results
1 | OC(Cn1cncn1)(Cn1cncn1)c1ccc(F)cc1F [FLUCONAZOLE] | – | – | MIC (Pichia kudriavzevii): 16 µg/mL (≈ 52.2 µM); MIC (Candida tropicalis): 0.5 µg/mL (≈ 1.63 µM); MIC (Nakaseomyces glabratus): 2 µg/mL (≈ 6.53 µM)
2 | COc1ccc(C2Nc3ccccc3NC3=C2C(=O)c2ccccc23)cc1 (stereo not drawn) | 22.6 µg/mL | 53.7 | –
3 | COc1ccc(C2Sc3ccccc3N=C3C2=C(O)c2ccccc23)cc1 (stereo not drawn) | 14.7 µg/mL | – | –
4 | O=C1C2=C(Nc3cc(C(F)(F)F)ccc3SC2c2cccs2)c2ccccc21 (stereo not drawn) | 6.53 µg/mL | – | –
5 | O=C1C2=C(Nc3ccccc3SC2c2ccc([N+](=O)[O-])cc2)c2ccccc21 (stereo not drawn) | 9.01 µg/mL | – | –
6 | Nc1ccc(C2Sc3ccccc3NC3=C2C(=O)c2ccccc23)cc1 (stereo not drawn) | 17.6 µg/mL | 49 | –
7 | N#Cc1ccc(C2Sc3ccccc3NC3=C2C(=O)c2ccccc23)cc1 (stereo not drawn) | 10.2 µg/mL | – | –
8 | N#Cc1ccc(C2SCCNC3=C2C(=O)c2ccccc23)cc1 (stereo not drawn) | – | – | inhibition (Chlamydia trachomatis [2]): inactive; inhibition (Chlamydia trachomatis [3]): 20%
9 | O=C1C2=C(Nc3ccccc3SC2c2cccs2)c2ccccc21 (stereo not drawn) | 7.36 µg/mL | – | –
10 | Cc1ccc(C2SCCNC3=C2C(=O)c2ccccc23)cc1 (stereo not drawn) | 21.4 µg/mL | 69.2 | –
11 | O=C1C2=C(Nc3ccccc3SC2c2cccc([N+](=O)[O-])c2)c2ccccc21 (stereo not drawn) | 6.35 µg/mL | – | –
12 | COc1ccccc1C1Sc2ccc(C(F)(F)F)cc2NC2=C1C(=O)c1ccccc12 (stereo not drawn) | 2.46 µM | 2.51 | viability at 20 h, 256 ug/ml [4]: 100%
13 | O=C1C2=C(Nc3ccccc3SC2c2ccc(Cl)cc2Cl)c2ccccc21 (stereo not drawn) | 6.37 µg/mL | 15.5 | –
14 | O=C1C2=C(Nc3ccccc3SC2c2cccc(Cl)c2)c2ccccc21 (stereo not drawn) | 4.79 µg/mL | 12.9 | –
15 | O=C1C2=C(Nc3ccccc3SC2c2cccc(C(F)(F)F)c2)c2ccccc21 (stereo not drawn) | 5.18 µg/mL | – | –
16 | N#Cc1cccc(C2Sc3ccccc3NC3=C2C(=O)c2ccccc23)c1 (stereo not drawn) | 9 µg/mL | – | –
17 | O=C1C2=C(Nc3ccccc3SC2c2cccc(O)c2)c2ccccc21 (stereo not drawn) | 16.5 µg/mL | 45.7 | –
18 | O=C1C2=C(NCCSC2c2ccc(Br)cc2)c2ccccc21 (stereo not drawn) | 21.3 µg/mL | – | –
19 | CC[C@H]1OC(=O)[C@H](C)[C@@H](O[C@H]2C[C@@](C)(OC)[C@@H](O)[C@H](C)O2)[C@H](C)[C@@H](O[C@@H]2O[C@H](C)C[C@H](N(C)C)[C@H]2O)[C@](C)(O)C[C@@H](C)CN(C)[C@H](C)[C@@H](O)[C@]1(C)O [AZITHROMYCIN] | – | – | MIC [5]: 1 µg/mL (≈ 1.34 µM); MIC (Escherichia coli [6]): 2 µg/mL (≈ 2.67 µM); MIC (Pseudomonas aeruginosa): 125 µg/mL (≈ 167 µM); MIC [7]: 2 µg/mL (≈ 2.67 µM); MIC [8]: 0.5 µg/mL (≈ 0.668 µM); MIC (Anaerostipes caccae): > 125 µg/mL; IC50 (Chlamydia trachomatis [9]): 0.06 µg/mL (≈ 0.0801 µM); MIC (Acinetobacter baumannii): < 1 µg/mL; MIC (Escherichia coli [10]): < 1 µg/mL; MIC (Blautia producta): < 0.06 µg/mL; MIC (Thomasclavelia ramosa): < 0.06 µg/mL; MIC (Staphylococcus aureus): 2 µg/mL (≈ 2.67 µM)
20 | O=C1C2=C(Nc3ccccc3SC2c2ccccc2C(=O)O)c2ccccc21 (stereo not drawn) | – | – | inhibition (Chlamydia trachomatis [2]): inactive; inhibition (Chlamydia trachomatis [3]): 20%

Reference: ChEMBL document CHEMBL5380782, “Design, Biological Evaluation, and Computer-Aided Analysis of Dihydrothiazepines as Selective Antichlamydial Agents” (J Med Chem, 2023)
